Where two headings read alike, the source gives them in different places.
Key:
A3R = target: T1, A3R (Rattus norvegicus, UniProt P28647); test: Small-animal PET in rats: baseline and A3R blocking scans; type: in vivo; details: blocker 2 mg/kg i.v. 30 min before tracer; for reduction in brain AUC of [^18F]FE@SUPPY as compared with DMSO administration: 0-60 min
T1 construct: Adult male Sprague-Dawley rats; from tissue; host or cells: living Sprague-Dawley rats, brain volume of interest in PET
T1 sequence (P28647 1-320): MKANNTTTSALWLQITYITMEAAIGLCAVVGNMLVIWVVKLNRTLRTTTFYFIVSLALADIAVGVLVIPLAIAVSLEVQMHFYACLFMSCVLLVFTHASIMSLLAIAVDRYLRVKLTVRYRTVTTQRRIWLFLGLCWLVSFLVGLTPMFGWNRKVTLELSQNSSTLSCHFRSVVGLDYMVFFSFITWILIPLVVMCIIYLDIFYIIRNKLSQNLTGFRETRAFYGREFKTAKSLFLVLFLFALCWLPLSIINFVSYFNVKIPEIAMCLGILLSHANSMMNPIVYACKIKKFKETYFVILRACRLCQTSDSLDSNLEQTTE
Excerpt: A microPET Focus220 scanner (Siemens, Medical Solutions) was used for the experiments. It has 168 detector modules providing a 7.6-cm axial and 22-cm transaxial field of view. The resolution of the reconstructed images (filtered back projection) was 1.3 mm (full-width at half-maximum) in the central field of view and remained under 2 mm within the central 5 cm diameter field of view. For PET imaging two groups of animals (rats and xenografted mice) were investigated. Rats were divided into four groups. The first group received vehicle (dimethyl sulphoxide, DMSO) intravenously via a lateral tail vein 30 min prior to radiotracer administration (three animals, 14.3 – 70.1 MBq, 0.2604 ± 0.06 μg). The second group received MRS1523 – a selective A3R antagonist – at a dose of 2 mg/kg body weight (dissolved in DMSO, 4 mg/mL) intravenously via a tail vein 30 min prior to radiotracer administration (three animals, 18.8 – 59.1 MBq, 0.3443 ± 0.05 μg). The third group received unlabelled title compound FE@SUPPY (dissolved in DMSO, 4 mg/mL) at a dose of 2 mg/kg 30 min before tracer administration (three animals, 9.7 – 16.1 MBq, 0.3926 ± 0.04 μg). In the final study group, the effect of P-glycoprotein inhibition was assessed by intravenous administration of 15 mg/kg TQD (freshly dissolved on each experimental day in 2.5 % aqueous dextrose solution and injected intravenously via a tail vein at a volume of 3 mL/kg over 1 min) 60 min prior to tracer administration (three animals, 13.9 – 26.8 MBq, 0.7451 ± 0.11 μg).
Anaesthetized animals were positioned in the imaging chamber of the microPET scanner, which was kept at 38 °C throughout the experiment. A stereotactic holder attached to the bed, consisting of ear plugs and a tooth bar, was used to fix the animal's head to ensure a reproducible position during the PET studies. [^18F]FE@SUPPY (27.91 ± 13.82 MBq) dissolved in 0.48 ± 0.22 mL phosphate-buffered saline (pH 7.4) was administered as a bolus via a tail vein. Dynamic PET imaging was performed over 60 min in all animals. At the end of the PET scan the animals were killed, a terminal blood sample was collected and whole brains were removed for testing of metabolite stability.
For all PET scans (rats and xenografted mice), list mode data were acquired with an energy window of 350 – 750 keV (rats) or 250 – 750 keV (mice) and a 6-ns timing window. Before each PET scan, a transmission scan using a ^57Co point source was recorded over 10 min. The PET data from the 60-min dynamic scans were sorted into three-dimensional sinograms according to the following frame sequence: 6 × 20 s, 5 × 60 s, 4 × 120 s, 3 × 300 s and 3 × 600 s. For the 90-min scans (in the xenografted mice) the following frame sequence was used: 8 × 5 s, 2 × 10 s, 2 × 30 s, 3 × 60 s, 2 × 150 s, 2 × 300 s, 4 × 600 s and 2 × 900 s. PET images were reconstructed by Fourier rebinning followed by filtered back projection with a ramp filter. The resulting voxel size was 0.6 × 0.6 × 0.8 mm for rats or 0.4 × 0.4 × 0.8 mm for mice. The standard data correction protocol (normalization, attenuation and decay correction) was applied to the data. A calibration factor for converting units of microPET images into absolute radioactivity concentration units was first generated by imaging a phantom filled with a known concentration of [^18F]FDG.
Rat brains were manually outlined on multiple planes of the PET summation images using the image analysis software PMOD 3.1 (Pmod Ltd, Zürich, Switzerland) or Amide. Volumes of interest in the brain or solid tissue mass (xenografts) were transferred to the PET images of the individual time frames and time–activity curves (TACs) expressed in units of kilobecquerels per millilitre were calculated. To facilitate comparison of TACs of different animals, radioactivity concentrations were normalized to dose and weight and expressed as standardized uptake value (SUV, %ID/cm^3 or %ID/g). […]

human A1R = test system: human A1R; parameters: method as in earlier work; details: cited from earlier work
[1] = Ex vivo stability/metabolism in rat plasma and brain after pretreatment; parameters: species or system rats; details: rats, after blocking treatment
Description: To determine the influence of the four treatments (vehicle, MRS1523, FE@SUPPY, TQD) on uptake of [^18F]FE@SUPPY, stability was assessed in plasma and brain 60 min after tracer injection. Final blood samples (3 mL) were collected in heparin-buffered tubes, rat brains were washed with ice-cold water and homogenized in 0.9 % aqueous NaCl solution (1 mL) using an IKA T10 basic Ultra-turrax (IKA Laboratory Equipment, Staufen, Germany). […] Sample clean-up was performed by vortexing plasma with the equivalent amount of methanol/acetonitrile (9:1) for 1 min and by subsequent ultracentrifugation (10,000 rpm, 5 min) to remove precipitated proteins. The supernatants obtained were analysed by radio-HPLC (Agilent, Boeblingen, Germany) equipped with a series 1100 autosampler, a series 1200 quaternary pump, a series 1200 diode array detector and a lead-shielded BGO radiodetector. A Chromolith® Performance RP-18e (100 × 4.6 mm, 5 μm) column with a Chromolith® Performance RP-18e (4 x4 mm, 5 μm) precolumn was eluted at a flow rate of 2 mL/min using a mobile phase consisting of 60 % acetonitrile and 40 % water/acetic acid 97.5:2.5 and 32 mM ammonium acetate, pH 3.5. UV detection was performed at a wavelength of 254 nm. The retention time of [^18F]FE@SUPPY was 4.6 – 5.9 min (UV detection and radiodetection).

rat A3R [2] = details: cited from earlier work
human A2AR = test system: human A2AR; parameters: method as in earlier work; details: cited from earlier work
rat A3R [3] = test: Affinity for rat A3R (literature binding data); details: ratio of Ki values
human A3R = target: human A3R; parameters: method as in PMID 10052977; details: read-out: Ki, affinity for human A3R; cited from earlier work
[4] = target: T2, CHO cells expressing the human A3R (CHO-A3) (Homo sapiens, UniProt P0DMS8); test: Xenograft mouse model PET (CHO vs CHO-A3 solid tissue masses); type: in vivo, mice; details: xenografted mice, static image 1 h after injection
T2 construct: Karl-Norbert Klotz (University of Würzburg); host or cells: CHO cells stably transfected (CHO-A3), grown as subcutaneous masses in NMRI-nu/nu mice
T2 sequence (P0DMS8 1-318): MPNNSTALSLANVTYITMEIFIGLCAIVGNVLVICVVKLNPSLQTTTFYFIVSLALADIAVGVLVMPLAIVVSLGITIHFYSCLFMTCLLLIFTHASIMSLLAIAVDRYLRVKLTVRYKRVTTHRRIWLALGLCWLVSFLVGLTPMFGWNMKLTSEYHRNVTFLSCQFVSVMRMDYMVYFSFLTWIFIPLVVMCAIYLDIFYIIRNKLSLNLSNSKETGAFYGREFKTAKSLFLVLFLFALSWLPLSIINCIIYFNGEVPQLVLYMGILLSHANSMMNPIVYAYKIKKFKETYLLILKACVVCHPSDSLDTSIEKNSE
Description: Adult male Sprague-Dawley rats (Him:OFA; Animal Research Institute, Himberg, Austria) weighing 307 ± 35 g were kept under controlled environmental conditions (22 ± 1 °C, 40 – 70 % humidity, 12-h light/dark cycle) with free access to standard laboratory animal diet and tap water. Before being used in the experiments, the animals were allowed to adapt to the new conditions for at least a week. Prior to each experiment, the animals were placed in a chamber containing 2.5 % isoflurane in oxygen. When unconscious, the animals were taken from the chamber and kept under anaesthesia with 1.8 % isoflurane administered via a mask during the whole experiment. Pathogen-free, female NMRI-nu/nu mice (Taconic, Denmark) weighing 28.1 ± 0.8 g were housed under sterile conditions. Mice were injected subcutaneously into both upper flanks with 100 μL of a cell suspension in phosphate-buffered saline containing 10^6 CHO cells (right side) or 10^6 CHO-A3 cells (left side). During the imaging periods of 60 or 90 min (rats or xenografted mice, respectively) the isoflurane level was adjusted depending on the depth of anaesthesia. A humidifier was used to moisten the gas mixture before supplying it to the animal.
Around 17 days after cell inoculation, animals in the xenograft group were positioned in the imaging chamber and a dynamic 90-min PET scan was initiated at the start of [^18F]FE@SUPPY injection (2.21 ± 0.75 MBq dissolved in 100 μl physiological saline, pH 7.4; three animals) via a tail vein under isoflurane anaesthesia (2 %). Additionally, in this group, [^18F]FDG PET was performed 1 day prior to the [^18F]FE@SUPPY experiments. […] In brief, mice were deprived of food for 6 – 8 h before [^18F]FDG injection via a tail vein. Mice had access to drinking water at all times. Body warming was achieved by placing the entire cage on a heating pad kept at 38 °C. Warming was started around 30 min before tracer injection and was continued throughout the uptake and imaging period. [^18F]FDG (6.03 ± 1.31 MBq dissolved in 100 μL physiological saline, pH 7.4; three animals) was injected via a tail vein under isoflurane anaesthesia (2 %). Mice were kept under isoflurane anaesthesia throughout the whole uptake and imaging period. A 10-min static image was acquired at 1 h after [^18F]FDG injection. […]
For all PET scans (rats and xenografted mice), list mode data were acquired with an energy window of 350 – 750 keV (rats) or 250 – 750 keV (mice) and a 6-ns timing window. Before each PET scan, a transmission scan using a ^57Co point source was recorded over 10 min. […] A calibration factor for converting units of microPET images into absolute radioactivity concentration units was first generated by imaging a phantom filled with a known concentration of [^18F]FDG. […]

[5] = read-out: Ki, affinity for rat A3R

Row | Compound | reduction in peak brain activity of [^18F]FE@SUPPY as compared with DMSO administration (A3R) | reduction in brain AUC of [^18F]FE@SUPPY as compared with DMSO administration (A3R) | reduction in plasma concentration of [^18F]FE@SUPPY at 60 min after injection [1] | Ki (rat A3R [2]; [5]) | also measured
1 | CCSC(=O)c1c(CC)nc(-c2ccccc2)c(C(=O)OCCF)c1CC [FE@SUPPY] | 16.7% | 5.4% | 27% | 600 nM | affinity for human A1R (human A1R): micromolar range; affinity for human A2AR (human A2AR): micromolar range
2 | CCCOC(=O)c1c(-c2ccccc2)nc(CC)c(C(=O)SCC)c1CCC [MRS1523, reference compound] | 34.1% | 27.6% | 36% | 113 nM | fold higher affinity of MRS1523 for rat A3R compared with FE@SUPPY (rat A3R [3]): 5.31 fold
3 | CCSC(=O)c1c(CC)nc(-c2ccccc2)c(C(=O)OCCF)c1CC [[^18F]FE@SUPPY, 5-(2-[^18F]fluoroethyl)-2,4-diethyl-3-(ethylsulfanylcarbonyl)-6-phenylpyridine-5-carboxylate] | – | – | – | – | Ki (rat A3R [2]; read-out: Ki, affinity towards rat A3R): 600 nM; Ki (human A3R): 4.2 nM
4 | [^18F]FDG [reference compound] | – | – | – | – | uptake in CHO tissue mass [4]: 5.4 %ID/g; uptake in CHO-A3 tissue mass [4]: 6.3 %ID/g
